Measurements as given in ChEMBL document CHEMBL4706552, “Discovery of 4-methyl-N-(4-((4-methylpiperazin- 1-yl)methyl)-3-(trifluoromethyl)phenyl)-3-((6-(pyridin-3-yl)-1H-pyrazolo[3,4-d]pyrimidin-4-yl)-oxy)benzamide as a potent inhibitor of RET and its gatekeeper mutant” (Eur J Med Chem, 2020).

Biological target: Proto-oncogene tyrosine-protein kinase receptor Ret (Homo sapiens, UniProt P07949)
Test: Binding affinity to wild-type human partial length RET (E713 to D1014 residues) expressed in bacterial expression system assessed as residual binding level at 1 uM by kinomescan method relative to control

Sequence of Proto-oncogene tyrosine-protein kinase receptor Ret (P07949 whole entry, the tested form may be a part): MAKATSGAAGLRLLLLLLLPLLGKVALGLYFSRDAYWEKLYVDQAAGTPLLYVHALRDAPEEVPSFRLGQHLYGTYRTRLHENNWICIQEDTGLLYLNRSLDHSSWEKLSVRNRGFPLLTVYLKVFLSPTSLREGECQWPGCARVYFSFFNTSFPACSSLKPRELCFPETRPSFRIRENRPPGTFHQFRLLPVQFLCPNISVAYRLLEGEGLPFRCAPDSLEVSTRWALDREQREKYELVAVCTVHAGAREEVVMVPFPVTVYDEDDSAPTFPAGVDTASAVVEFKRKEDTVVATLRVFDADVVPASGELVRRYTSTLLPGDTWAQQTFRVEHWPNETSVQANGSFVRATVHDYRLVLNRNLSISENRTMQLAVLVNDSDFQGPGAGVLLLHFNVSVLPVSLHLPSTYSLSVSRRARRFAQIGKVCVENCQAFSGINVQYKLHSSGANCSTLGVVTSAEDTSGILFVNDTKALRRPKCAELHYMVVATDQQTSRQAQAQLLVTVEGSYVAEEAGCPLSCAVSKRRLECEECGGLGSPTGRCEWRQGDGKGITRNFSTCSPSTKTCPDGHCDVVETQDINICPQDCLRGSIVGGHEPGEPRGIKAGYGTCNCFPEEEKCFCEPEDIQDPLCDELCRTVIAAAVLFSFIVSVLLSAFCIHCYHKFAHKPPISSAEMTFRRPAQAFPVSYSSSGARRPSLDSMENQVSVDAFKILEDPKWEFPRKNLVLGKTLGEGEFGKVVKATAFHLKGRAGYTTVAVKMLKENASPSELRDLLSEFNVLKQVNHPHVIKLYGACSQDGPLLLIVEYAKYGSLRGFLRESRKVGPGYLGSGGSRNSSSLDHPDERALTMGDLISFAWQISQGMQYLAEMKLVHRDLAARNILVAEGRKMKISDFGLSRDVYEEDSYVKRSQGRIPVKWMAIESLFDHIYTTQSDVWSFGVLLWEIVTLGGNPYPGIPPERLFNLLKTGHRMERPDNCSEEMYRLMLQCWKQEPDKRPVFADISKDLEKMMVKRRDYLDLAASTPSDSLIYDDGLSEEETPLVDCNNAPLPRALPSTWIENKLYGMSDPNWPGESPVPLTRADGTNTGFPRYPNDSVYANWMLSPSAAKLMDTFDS

Cc1ccc(C(=O)Nc2ccc(CN3CCN(C)CC3)c(C(F)(F)F)c2)cc1Oc1nc(-c2cccnc2)nc2[nH]ncc12
Activity: 0.05%
